From article PMC4774911, “Biochemical Screening of Five Protein Kinases from Plasmodium falciparum against 14,000 Cell-Active Compounds” (PLoS ONE, 2016)
Where “and” joins values, the source holds several entries; their conditions need not be identical. Equal entries are not always repeated.

Tests used:
Experiment in all cases: biochemical
Parameters in all cases: endogenous in cells; host or cells: K562 cell extract; species or system K562 (extract); replicate k of n = 2 (each experiment ID is one independent experiment; two experiment IDs per compound)
Conditions in all cases: read-out: KDapp
[1] = target: CAMK2G (Homo sapiens, UniProt Q13555)
Sequence of CAMK2G (Q13555 whole entry): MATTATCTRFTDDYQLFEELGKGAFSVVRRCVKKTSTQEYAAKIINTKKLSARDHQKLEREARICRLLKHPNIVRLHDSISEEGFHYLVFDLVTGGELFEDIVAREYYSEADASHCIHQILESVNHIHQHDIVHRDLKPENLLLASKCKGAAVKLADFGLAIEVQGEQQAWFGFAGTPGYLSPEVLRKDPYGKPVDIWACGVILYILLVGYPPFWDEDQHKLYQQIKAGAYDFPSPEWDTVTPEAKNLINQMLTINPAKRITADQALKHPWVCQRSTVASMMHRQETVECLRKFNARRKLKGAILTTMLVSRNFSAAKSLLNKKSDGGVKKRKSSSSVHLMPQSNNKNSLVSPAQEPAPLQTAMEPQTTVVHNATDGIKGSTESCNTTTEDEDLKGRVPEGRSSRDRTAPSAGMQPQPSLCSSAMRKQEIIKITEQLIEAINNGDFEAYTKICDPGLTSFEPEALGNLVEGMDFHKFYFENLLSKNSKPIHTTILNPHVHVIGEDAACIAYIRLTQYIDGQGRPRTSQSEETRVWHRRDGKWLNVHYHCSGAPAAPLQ

[2] = target: T1, IRAK4 (Homo sapiens, UniProt Q9NWZ3)
T1 sequence (Q9NWZ3 1-460): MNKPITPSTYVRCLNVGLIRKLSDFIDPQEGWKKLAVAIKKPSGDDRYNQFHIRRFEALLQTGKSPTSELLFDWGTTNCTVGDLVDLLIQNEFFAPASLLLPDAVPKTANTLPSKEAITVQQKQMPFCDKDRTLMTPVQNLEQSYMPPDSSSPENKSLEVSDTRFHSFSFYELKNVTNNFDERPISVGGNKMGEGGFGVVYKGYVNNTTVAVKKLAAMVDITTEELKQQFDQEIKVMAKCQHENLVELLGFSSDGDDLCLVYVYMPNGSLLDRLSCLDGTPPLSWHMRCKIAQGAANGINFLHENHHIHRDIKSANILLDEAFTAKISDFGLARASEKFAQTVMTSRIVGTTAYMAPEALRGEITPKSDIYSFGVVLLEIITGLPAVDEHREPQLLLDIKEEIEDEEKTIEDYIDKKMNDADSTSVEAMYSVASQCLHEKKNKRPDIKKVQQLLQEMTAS

[3] = target: KIT (Homo sapiens, UniProt P10721)
Sequence of KIT (P10721 whole entry): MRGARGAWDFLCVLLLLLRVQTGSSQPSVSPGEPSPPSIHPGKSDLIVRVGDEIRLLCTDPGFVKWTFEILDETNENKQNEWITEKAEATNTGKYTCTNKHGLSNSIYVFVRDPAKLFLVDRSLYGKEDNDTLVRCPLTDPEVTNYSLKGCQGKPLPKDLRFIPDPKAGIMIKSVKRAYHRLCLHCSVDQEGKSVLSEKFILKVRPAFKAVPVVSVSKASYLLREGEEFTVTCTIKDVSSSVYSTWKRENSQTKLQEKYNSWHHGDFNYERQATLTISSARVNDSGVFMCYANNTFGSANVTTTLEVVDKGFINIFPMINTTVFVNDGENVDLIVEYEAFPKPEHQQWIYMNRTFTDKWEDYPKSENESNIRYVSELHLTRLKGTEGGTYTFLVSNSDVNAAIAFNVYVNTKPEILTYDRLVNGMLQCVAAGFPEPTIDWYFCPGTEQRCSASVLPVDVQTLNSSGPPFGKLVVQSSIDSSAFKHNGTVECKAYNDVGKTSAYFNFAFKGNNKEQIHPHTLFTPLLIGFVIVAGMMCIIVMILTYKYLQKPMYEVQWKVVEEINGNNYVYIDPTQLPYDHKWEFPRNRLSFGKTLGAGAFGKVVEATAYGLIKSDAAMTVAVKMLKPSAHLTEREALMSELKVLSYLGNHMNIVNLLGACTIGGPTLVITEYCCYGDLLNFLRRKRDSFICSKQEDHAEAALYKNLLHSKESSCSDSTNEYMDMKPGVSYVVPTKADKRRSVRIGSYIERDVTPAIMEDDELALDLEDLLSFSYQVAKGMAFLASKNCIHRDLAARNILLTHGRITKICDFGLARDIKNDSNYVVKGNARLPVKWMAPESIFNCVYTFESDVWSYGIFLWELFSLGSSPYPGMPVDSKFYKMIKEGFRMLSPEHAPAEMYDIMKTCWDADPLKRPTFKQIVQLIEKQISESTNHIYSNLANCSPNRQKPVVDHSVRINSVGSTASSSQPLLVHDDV

[4] = target: T2, MAP3K6 (Homo sapiens, UniProt O95382)
T2 sequence (O95382 1-1288): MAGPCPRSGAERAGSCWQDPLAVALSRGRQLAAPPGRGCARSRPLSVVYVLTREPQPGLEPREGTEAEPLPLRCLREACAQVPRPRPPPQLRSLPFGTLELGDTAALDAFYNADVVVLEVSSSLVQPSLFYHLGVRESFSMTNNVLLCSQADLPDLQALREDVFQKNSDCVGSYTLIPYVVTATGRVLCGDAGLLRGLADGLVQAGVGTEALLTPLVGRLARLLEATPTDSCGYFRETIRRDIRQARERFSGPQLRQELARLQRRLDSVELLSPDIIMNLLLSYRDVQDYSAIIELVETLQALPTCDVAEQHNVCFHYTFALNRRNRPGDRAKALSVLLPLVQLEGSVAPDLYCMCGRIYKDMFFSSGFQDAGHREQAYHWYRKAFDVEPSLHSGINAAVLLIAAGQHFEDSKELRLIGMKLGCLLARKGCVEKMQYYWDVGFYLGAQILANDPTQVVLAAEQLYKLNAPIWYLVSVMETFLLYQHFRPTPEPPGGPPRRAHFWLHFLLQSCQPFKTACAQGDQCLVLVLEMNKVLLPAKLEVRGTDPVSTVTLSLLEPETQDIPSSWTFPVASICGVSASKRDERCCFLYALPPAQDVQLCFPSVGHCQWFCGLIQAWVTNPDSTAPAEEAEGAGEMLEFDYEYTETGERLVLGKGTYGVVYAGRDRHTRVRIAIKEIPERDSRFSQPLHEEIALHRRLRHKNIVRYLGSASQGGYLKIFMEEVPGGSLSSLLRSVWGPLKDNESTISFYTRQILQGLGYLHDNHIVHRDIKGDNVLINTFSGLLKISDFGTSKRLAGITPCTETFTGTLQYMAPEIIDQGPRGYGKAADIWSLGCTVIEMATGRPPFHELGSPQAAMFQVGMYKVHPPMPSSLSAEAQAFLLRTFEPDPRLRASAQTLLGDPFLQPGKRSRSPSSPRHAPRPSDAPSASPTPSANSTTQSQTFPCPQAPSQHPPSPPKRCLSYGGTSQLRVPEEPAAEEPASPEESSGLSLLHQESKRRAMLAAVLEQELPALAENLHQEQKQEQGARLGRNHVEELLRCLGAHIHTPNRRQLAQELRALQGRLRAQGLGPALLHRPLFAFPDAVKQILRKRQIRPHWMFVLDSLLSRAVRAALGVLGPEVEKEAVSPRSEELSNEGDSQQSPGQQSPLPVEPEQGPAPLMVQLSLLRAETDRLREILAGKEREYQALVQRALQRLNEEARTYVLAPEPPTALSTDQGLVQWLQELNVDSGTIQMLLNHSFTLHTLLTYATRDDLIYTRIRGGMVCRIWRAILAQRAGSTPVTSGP

[5] = target: T3, MAP3K7 (Homo sapiens, UniProt O43318)
T3 sequence (O43318 1-606): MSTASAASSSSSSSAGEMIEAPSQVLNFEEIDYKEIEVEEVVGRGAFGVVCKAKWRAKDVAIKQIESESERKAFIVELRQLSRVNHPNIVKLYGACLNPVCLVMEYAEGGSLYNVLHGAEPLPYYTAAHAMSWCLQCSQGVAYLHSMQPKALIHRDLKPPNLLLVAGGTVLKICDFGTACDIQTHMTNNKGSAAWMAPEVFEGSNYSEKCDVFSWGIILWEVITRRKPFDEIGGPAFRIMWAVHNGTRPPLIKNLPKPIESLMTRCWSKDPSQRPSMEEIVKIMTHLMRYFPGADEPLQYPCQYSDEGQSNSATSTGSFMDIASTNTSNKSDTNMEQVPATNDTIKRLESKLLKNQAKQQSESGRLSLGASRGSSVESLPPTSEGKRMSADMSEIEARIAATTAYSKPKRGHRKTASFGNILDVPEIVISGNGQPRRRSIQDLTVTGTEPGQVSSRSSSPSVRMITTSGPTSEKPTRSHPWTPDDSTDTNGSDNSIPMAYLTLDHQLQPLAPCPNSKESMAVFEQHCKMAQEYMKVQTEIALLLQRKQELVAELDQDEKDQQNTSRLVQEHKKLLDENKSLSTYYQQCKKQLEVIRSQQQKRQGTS

CN1CCN(c2ccc(Nc3ncc(C#N)c(Nc4ccccc4C(N)=O)n3)cc2)CC1.Cl [TCMDC-134116]
Kd [1]: 340 nM and 294 nM | Kd [2]: 96.4 nM | Kd [3]: 1100 nM | Kd [4]: 994 nM and 870 nM | Kd [5]: 1470 nM and 808 nM
